Data reported in article PMC5695812, “Novel chloroacetamido compound CWR-J02 is an anti-inflammatory glutaredoxin-1 inhibitor” (PLoS ONE, 2017).

Columns and labels:
glutaredoxin-1 (Grx1) [1] = biological target: T1, glutaredoxin-1 (Grx1) (Mus musculus, UniProt Q9QUH0); assay: Grx1 activity in lysates of treated BV2 murine microglia; click-biotin/streptavidin pull-down with MS and western blot; format: cell-based
T1 construct: gene Glrx
T1 sequence (Q9QUH0 2-107): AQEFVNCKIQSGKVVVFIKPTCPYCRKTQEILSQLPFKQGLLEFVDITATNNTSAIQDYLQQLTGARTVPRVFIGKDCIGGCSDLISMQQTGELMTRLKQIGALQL

glutaredoxin-1 (Grx1) [2] = biological target: T2, glutaredoxin-1 (Grx1) (Homo sapiens, UniProt P35754); assay: isolated enzyme spectrophotometric assay ([…] min pre-incubation, […] GSH); Kitz-Wilson kinetics; tandem MS of the Cys-22 adduct; format: biochemical
T2 construct: gene GLRX
T2 sequence (P35754 2-106): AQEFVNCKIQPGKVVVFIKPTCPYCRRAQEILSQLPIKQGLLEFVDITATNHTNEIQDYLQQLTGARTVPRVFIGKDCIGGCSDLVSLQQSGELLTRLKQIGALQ

Cys22 = Cys22 (UniProt position 23, FIKPTCPYCRR); conditions: cited from earlier work

C#CCOc1cc(C(=O)NCc2ccc(NC(=O)CCl)cc2)cc(C(=O)OC)c1 [J02, methyl 3-((4-(2-chloroacetamido)benzyl)carbamoyl)-5-(prop-2-yn-1-yloxy) benzoate]
IC50 (glutaredoxin-1 (Grx1) [1]): 37 µM
IC50 (glutaredoxin-1 (Grx1) [2]): 32 µM

Glutaredoxin-1 (Grx1, thioltransferase) (Homo sapiens (inferred; species of the isolated enzyme not stated explicitly))
pKa (Cys22): 3.5
